Data published in patent US5068247A, “2-aminopentanoic acid compounds and their use as immunosuppressants” (priority 1989, dated 1991).

Experiments:
[1] = tested on: allo-reactive cytotoxic T cells in spleen of EL4-immunized BALB/c mice; assay: suppression of allo-reactive cytotoxic T cells induced by immunization of mouse with allogenic cells; format: in vivo
Method: Male 5- to 7-week-old BALB/c mice (H-2^d) were immunized with leukemia cell EL4 derived from C57BL/6 mice (H-2^b) (10^7 cells/mouse, intraperitoneal administration), and the test substance was administered intraperitoneally 5 times at the doses of 0.001 to 3 mg/kg/day or orally at the doses of 0.3 to 10 mg/kg/day from the day of immunization. Nine to ten days after immunization, the spleen was resected from the mice to prepare a single cell suspension and the suspension was used as effector cell suspension. The ^51 Cr-release assay was carried out in the same way as in Experiment Example 3, using EL4 cells as the target cells to measure the cytotoxic activity.
The activity of allo-reactive cytotoxic T cell is indicated by lytic unit (LU) per spleen. One lytic unit (LU) is defined as the number of effector cells required to cause 25% lysis of 5×10^3 target cells. At the same time, the body weight of mouse and number of spleen cells were also determined.

[2] = tested on: allo-specific cytotoxic antibody in serum of EL4-immunized BALB/c mice; assay: suppression of allo-specific cytotoxic antibody production induced by allogenic cell immunization of mouse; format: in vivo
Method: Male 5- to 7-week-old BALB/c mice were immunized with leukemia cell EL4 derived from C57BL/6 mice (10^7 cells/mouse, intraperitoneal administration) in the same way as in Experiment Example 9, and the […] Nine to ten days after immunization, a serum was collected from the mice. Fifty μl of the two-fold serial dilution of the serum, 50 μl of a guinea pig complement and EL4 cell suspension labelled with ^51 Cr as the target cell (5×10^4 cells/ml, 100 μl) were together added to a 96-well microtest plate. After incubation at 37° C. for 1 hour, the amount of ^51 Cr released in the supernatant was measured, and the complement-dependent cytotoxicity was calculated by the following formula. [formula]
The value of allo-specific cytotoxic antibody determined as above was expressed by the titer calculated on the basis of the concentration at which the releasing amount of ^51 Cr was 50% of that of ^51 Cr-labelled target cells treated with 0.1 N HCl.

[3] = cytotoxicity to cultured tumor cell line K562; conditions: human, k562 cells, Suppression
Method: (§1) Cytotoxicity to various human tumor cell lines was examined as follows:
(§2) Cells of human cell lines, K562, MOLT4, U937 and HL60 were respectively suspended to the concentration of 4×10^5 cells/ml in the RPMI1640 culture medium supplemented with 20% FCS. Fifty μl of each suspension was added to each well of a 96-well microtest plate to which 50 μl of the test solution had been added. After culturing the suspension at 37° C. in an atmosphere of 5% carbon dioxide for 72 hours, the absorbancy at 570 nm was measured in the same way as with the colorimetry using MTT in Experiment Example 1, and the percent suppression was calculated by the following formula, which was used as an index of cytotoxicity.

K562 = assay: cytotoxicity to cultured tumor cell line K562
Method: as §1, §2

U937 = assay: cytotoxicity to cultured tumor cell line U937; format: cell-based, human
[4] = tested on: IL-2 production in mouse allogenic MLC; assay: suppression of IL-2 production in mouse allogenic MLC; format: cell-based
Method: Mouse allogenic MLC was carried out as follows:
After termination of culture, the supernatant was collected and used as the supernatant of mouse allogenic MLC.
The IL-2 and IL-3 activities in the supernatant of mouse allogenic MLC were assayed in the same way as in Experiment Example 4.

[5] = cytotoxicity to cultured tumor cell line MOLT4; format: cell-based, human; conditions: human, molt4 cells, read-out: Suppression
Method: as §1, §2

MOLT4 = assay: cytotoxicity to cultured tumor cell line MOLT4; format: cell-based, human
Method: as §1, §2

[6] = 0.01 mg/kg/day ip × 5, Table 9A
[7] = 0.03 mg/kg/day ip × 5, Table 9A
[8] = 0.01 mg/kg/day ip × 5, Table 10A
[9] = 0.03 mg/kg/day ip × 5, Table 10A
[10] = 0.1 mg/kg/day ip × 5, Table 10A
[11] = 0.3 mg/kg/day ip × 5, Table 10A
[12] = 0.3 mg/kg/day po × 5, Table 10B

CCCCCCCCCCCCCCCC[C@@H](O)[C@H](O)[C@@](N)(CO)C(=O)O [Example 2]
Body weight 9 days after immunization [1, 6]: 29.0 ± 1.7 g | Cytotoxic T cell activity [1, 6]: 724 ± 202 LU/spleen | Cytotoxic T cell activity, suppression [1, 6]: 28.5% | Number of spleen cells [1, 6]: 3.2 ± 0.5 × 10^8 cell | Body weight 9 days after immunization [1, 7]: 28.5 ± 1.0 g | Cytotoxic T cell activity [1, 7]: 536 ± 272 LU/spleen | Cytotoxic T cell activity, suppression [1, 7]: 47.0% | Number of spleen cells [1, 7]: 2.6 ± 0.6 × 10^8 cell | Body weight 9 days after immunization ([1]; 0.1 mg/kg/day ip × 5, Table 9A): 28.3 ± 1.4 g | Cytotoxic T cell activity ([1]; 0.1 mg/kg/day ip × 5, Table 9A): 527 ± 172 LU/spleen | Cytotoxic T cell activity, suppression ([1]; 0.1 mg/kg/day ip × 5, Table 9A): 47.9% | Number of spleen cells ([1]; 0.1 mg/kg/day ip × 5, Table 9A): 2.8 ± 0.5 × 10^8 cell | Body weight 9 days after immunization ([1]; 0.3 mg/kg/day ip × 5, Table 9A): 29.0 ± 1.8 g | Cytotoxic T cell activity ([1]; 0.3 mg/kg/day ip × 5, Table 9A): 525 ± 58 LU/spleen | Cytotoxic T cell activity, suppression ([1]; 0.3 mg/kg/day ip × 5, Table 9A): 48.1% | Number of spleen cells ([1]; 0.3 mg/kg/day ip × 5, Table 9A): 3.1 ± 0.5 × 10^8 cell | Body weight 9 days after immunization ([1]; 0.3 mg/kg/day po × 5, Table 9B): 28.0 ± 0.7 g | Cytotoxic T cell activity ([1]; 0.3 mg/kg/day po × 5, Table 9B): 323 ± 97 LU/spleen | Cytotoxic T cell activity, suppression ([1]; 0.3 mg/kg/day po × 5, Table 9B): 65.0% | Number of spleen cells ([1]; 0.3 mg/kg/day po × 5, Table 9B): 1.4 ± 0.2 × 10^8 | Body weight 9 days after immunization ([1]; 1 mg/kg/day ip × 5, Table 9A): 27.3 ± 1.9 g | Cytotoxic T cell activity ([1]; 1 mg/kg/day ip × 5, Table 9A): 318 ± 128 LU/spleen | Cytotoxic T cell activity, suppression ([1]; 1 mg/kg/day ip × 5, Table 9A): 68.6% | Number of spleen cells ([1]; 1 mg/kg/day ip × 5, Table 9A): 3.2 ± 0.6 × 10^8 cell | Body weight 9 days after immunization ([1]; 1 mg/kg/day po × 5, Table 9B): 29.0 ± 1.7 g | Cytotoxic T cell activity ([1]; 1 mg/kg/day po × 5, Table 9B): 473 ± 92 LU/spleen | Cytotoxic T cell activity, suppression ([1]; 1 mg/kg/day po × 5, Table 9B): 48.7% | Number of spleen cells ([1]; 1 mg/kg/day po × 5, Table 9B): 1.4 ± 0.3 × 10^8 | Body weight 9 days after immunization ([1]; 3 mg/kg/day ip × 5, Table 9A): 28.6 ± 1.7 g | Cytotoxic T cell activity ([1]; 3 mg/kg/day ip × 5, Table 9A): < 50 LU/spleen | Cytotoxic T cell activity, suppression ([1]; 3 mg/kg/day ip × 5, Table 9A): 95.1% | Number of spleen cells ([1]; 3 mg/kg/day ip × 5, Table 9A): 2.7 ± 0.4 × 10^8 cell | Body weight 9 days after immunization ([1]; 3 mg/kg/day po × 5, Table 9B): 29.4 ± 1.5 g | Cytotoxic T cell activity ([1]; 3 mg/kg/day po × 5, Table 9B): 427 ± 100 LU/spleen | Cytotoxic T cell activity, suppression ([1]; 3 mg/kg/day po × 5, Table 9B): 53.7% | Number of spleen cells ([1]; 3 mg/kg/day po × 5, Table 9B): 2.0 ± 0.3 × 10^8 | Body weight 9 days after immunization ([1]; 10 mg/kg/day po × 5, Table 9B): 27.4 ± 1.7 g | Cytotoxic T cell activity ([1]; 10 mg/kg/day po × 5, Table 9B): 274 ± 82 LU/spleen | Cytotoxic T cell activity, suppression ([1]; 10 mg/kg/day po × 5, Table 9B): 70.3% | Number of spleen cells ([1]; 10 mg/kg/day po × 5, Table 9B): 1.6 ± 0.3 × 10^8 | induction of allo-reactive cytotoxic T cells (in words) ([1]; 5 times intraperitoneal or oral): strongly suppresses the induction of allo-reactive cytotoxic T cells | Allogenic cell-specific antibody in serum, suppression [2, 8]: 0% | Allogenic cell-specific antibody in serum, titer [2, 8]: 119 ± 47 | Allogenic cell-specific antibody in serum, suppression [2, 9]: 0% | Allogenic cell-specific antibody in serum, titer [2, 9]: 87 ± 55 | Allogenic cell-specific antibody in serum, suppression [2, 10]: 0% | Allogenic cell-specific antibody in serum, titer [2, 10]: 89 ± 32 | Allogenic cell-specific antibody in serum, suppression [2, 11]: 39.9% | Allogenic cell-specific antibody in serum, titer [2, 11]: 50 ± 48 | Allogenic cell-specific antibody in serum, suppression [2, 12]: 39.3% | Allogenic cell-specific antibody in serum, titer [2, 12]: 130 ± 45 | Allogenic cell-specific antibody in serum, suppression ([2]; 1 mg/kg/day ip × 5, Table 10A): > 80% | Allogenic cell-specific antibody in serum, titer ([2]; 1 mg/kg/day ip × 5, Table 10A): < 16 | Allogenic cell-specific antibody in serum, suppression ([2]; 1 mg/kg/day po × 5, Table 10B): 37.9% | Allogenic cell-specific antibody in serum, titer ([2]; 1 mg/kg/day po × 5, Table 10B): 133 ± 50 | Allogenic cell-specific antibody in serum, suppression ([2]; 3 mg/kg/day ip × 5, Table 10A): > 80% | Allogenic cell-specific antibody in serum, titer ([2]; 3 mg/kg/day ip × 5, Table 10A): < 16 | Allogenic cell-specific antibody in serum, suppression ([2]; 3 mg/kg/day po × 5, Table 10B): 58.9% | Allogenic cell-specific antibody in serum, titer ([2]; 3 mg/kg/day po × 5, Table 10B): 88 ± 47 | Allogenic cell-specific antibody in serum, suppression ([2]; 10 mg/kg/day po × 5, Table 10B): 68.7% | Allogenic cell-specific antibody in serum, titer ([2]; 10 mg/kg/day po × 5, Table 10B): 67 ± 16 | allo-specific cytotoxic antibody production in serum (in words) ([2]; intraperitoneal or oral, Tables 10A to 10D): strongly suppresses allo-specific cytotoxic antibody production in serum | cytotoxicity at 72 h ([3]; 0.1 μg/ml): 0.7% | cytotoxicity at 72 h ([3]; 1 μg/ml): 2.9% | cytotoxicity at 72 h ([3]; 10 μg/ml): 4.4% | Absorbancy (K562; 0.1 μg/ml): 1.128 ± 0.025 | Absorbancy (K562; 1 μg/ml): 1.103 ± 0.045 | Absorbancy (K562; 10 μg/ml): 1.086 ± 0.045 | Absorbancy (U937; 0.1 μg/ml): 0.669 ± 0.030 | Absorbancy (U937; 1 μg/ml): 0.681 ± 0.009 | Absorbancy (U937; 10 μg/ml): 0.673 ± 0.111 | IL-2 activity ([4]; 0.0001 μg/ml): 3.9 U/ml | IL-2 activity ([4]; 0.001 μg/ml): 3.1 U/ml | IL-2 activity ([4]; 0.01 μg/ml): 3.6 U/ml | IL-2 activity ([4]; 0.1 μg/ml): 1 U/ml | IL-2 activity ([4]; 1 μg/ml): 1.6 U/ml | inhibition at 0.0001 µg/mL ([4]; Mus musculus, 48 h, 0.0001 μg/ml): 13.3% | inhibition at 0.001 µg/mL ([4]; Mus musculus, 48 h, 0.001 μg/ml): 31.1% | inhibition at 0.01 µg/mL ([4]; Mus musculus, 48 h, 0.01 μg/ml): 17.8% | inhibition at 0.1 µg/mL ([4]; Mus musculus, 48 h, 0.1 μg/ml): 68.9% | inhibition at 1 µg/mL ([4]; Mus musculus, 48 h, 1 μg/ml): 64.4% | cytotoxicity at 72 h ([5]; 0.1 μg/ml): 0.9% | cytotoxicity at 72 h ([5]; 1 μg/ml): 11% | cytotoxicity at 72 h ([5]; 10 μg/ml): 9.4% | Absorbancy (MOLT4; 0.1 μg/ml): 1.144 ± 0.040 | Absorbancy (MOLT4; 1 μg/ml): 1.027 ± 0.009 | Absorbancy (MOLT4; 10 μg/ml): 1.045 ± 0.041
